According to patent US20150018418A1, “COMPOSITIONS AND METHODS FOR PROLONGING PREGNANCY” (priority 2013, published 2015):

Legend:
[1] = system: preterm labor / premature birth; settings: cited from earlier work
[2] = system: pregnant human female in PTL (uterine contractions); settings: Example 1
Procedure: A pregnant person, at 29.5 weeks gestation, presented to the hospital in PTL during their first pregnancy. […] The patient's parent experienced PTL during one of their pregnancies, leading to premature birth of the patient at 30 weeks gestation. The patient's sibling also had experienced PTL with one of their pregnancies resulting in premature birth at 36 weeks gestation.
The patient was diagnosed with PTL and started on nifedipine 20 mg by mouth every 6 hours for tocolysis and magnesium sulfate 6 g as an intravenous infusion over 30 minutes followed by 2 g per hour for the next 12 hours for fetal neuroprotection. […] A course of steroids were also given for fetal lung maturation.
The patient then enrolled in a study conducted in advancement of the present disclosure and began therapy with gabapentin 300 mg, 3×/day (900 mg/day total). […] The following day the patient was discharged home only on gabapentin 300 mg, 3×/day and their previous outpatient dose of atenolol at 50 mg a day. […] They were instructed to increased their gabapentin dose to 600 mg, 3×/day.
Gabapentin was not administered while the patient was in the hospital. […] The patient was discharged.
Such contractions are the hallmark of preterm labor, which is known to result in premature birth in 60% of cases.

[3] = system: pregnant human in PTL (uterine contractions, uterine pressure); assay: Example 2: gabapentin maintenance therapy in a patient with preterm labor (case report); format: in vivo
Procedure: The cervix was dilated at 3.5-4 cm and regular uterine contractions were occurring at 11/hour. […] The uterine contractions slowly diminished and were completely resolved 14 hours after tocolysis was initiated.
The cervix was still 3.5-4 cm dilated at the time of enrollment. By the evening of the next day, the subject began feeling “uncomfortable” with a “pressure” feeling in their uterus. They were instructed the next day to increase their bedtime gabapentin dose to 600 mg and to continue 300 mg in the morning and in the afternoon. […] Two days later the subject reported feeling some recurrent uterine pressure especially noticeable for the hour before each gabapentin dose was taken. Gabapentin was increased to 600 mg, 3×/day and by the following day all of the pressure symptoms had resolved. The subject remained asymptomatic.
They continued on gabapentin 600 mg, 3×/day and remained asymptomatic. Three days later the subject noticed that their “water broke”. They were admitted to the hospital and confirmed to have preterm premature rupture of membranes (PPROM) with cervix still dilated to 4 cm. Gabapentin was continued at 600 mg, 3×/day. The subject remained asymptomatic throughout the next day; however, on the morning of the following day the subject began having regular uterine contractions about every 3-5 minutes and their cervix had now dilated to 7cm.
This discovery of gabapentin maintenance therapy resolving recurrent uterine contractions and pressure symptoms leading to a prolongation of pregnancy and preserving fetal survival is accordingly highly valuable to the public. Its value can be recognized at least in part because uterine contractions are an essential component of PTL, which precedes 40-50% of premature births (<37 weeks gestation) and as described above, premature birth occurs in 11.5% of all live births in the US, is the number one cause of neonatal mortality, and is responsible for half of the long-term neurological impairments in children. […]

[4] = Serum half-life and clearance of gabapentin in humans; format: in vivo; settings: expected from the serum half-life
Description: The patient was discharged.

[5] = nifedipine 20 mg by mouth every 6 hours, with i.v. magnesium sulfate for fetal neuroprotection

SMILES: CC(C)(C)NCC(O)c1cc(O)cc(O)c1 (stereo not shown) [terbutaline]
- maintenance tocolysis for prolonging pregnancy ([1]; patients with recent or resolved PTL, versus placebo): no more effective than maintenance placebo therapy

SMILES: COC(=O)C1=C(C)NC(C)=C(C(=O)OC)C1c1ccccc1[N+](=O)[O-] [nifedipine]
- time to complete resolution of uterine contractions after tocolysis was initiated [2, 5]: 12 h
- time to complete resolution of uterine contractions after tocolysis was initiated [3, 5]: 14 h

SMILES: NCC1(CC(=O)O)CCCCC1 [gabapentin, (1-aminomethyl)cyclohexaneacetic acid]
- use during pregnancy and premature birth ([1]; Fujii H, et al. Neurology 2013): associated with an increase in premature birth
- time to be fully cleared after discontinuation [4]: about 30 hours
- recurrent uterine cramping and uterine contraction feelings ([2]; dose increased from 300 mg to 600 mg 3x/day, after the second 600 mg dose): fully resolved
- side effects after the first dose ([2]; gabapentin 300 mg 3x/day, resolved that same day): mild dizziness
- side effects from the higher dose ([2]; gabapentin 600 mg 3x/day): did not experience any side effects
- time remained stable without any uterine cramping ([2]; gabapentin 600 mg 3x/day): 16 days
- outcome after discontinuation of maintenance therapy ([2]; gabapentin discontinued for 8 days): associated with the IUFD
- uncomfortable pressure feeling in uterus ([3]; bedtime dose increased to 600 mg, 300 mg morning and afternoon, following morning): fully resolved
- recurrent uterine pressure symptoms ([3]; gabapentin increased to 600 mg 3x/day, by the following day): resolved

SMILES: O=S(=O)([O-])[O-].[Mg+2] [magnesium sulfate]
- time to resolution of all uterine contractions ([2]; recurrent contractions, intravenous magnesium sulfate infusion 2 g/hour, gabapentin not administered): ≤ 5 h
